Ends that are not written are not given here.
What was measured:
[1] = test system: MK-2; conditions: cited from earlier work
[2] = target: T1, Human MAPKAP kinase-2 (45-371) (human, UniProt P49137 45-371); assay: X-ray crystallography of MK-2 co-crystallized with AMP-PNP, SC-83598 and MgCl2
T1 construct: Expressed in E. coli as a GST fusion; One copy of the complex per asymmetric unit; also called MK-2(45-371); MK-2
T1 sequence (P49137 45-371 limits assumed): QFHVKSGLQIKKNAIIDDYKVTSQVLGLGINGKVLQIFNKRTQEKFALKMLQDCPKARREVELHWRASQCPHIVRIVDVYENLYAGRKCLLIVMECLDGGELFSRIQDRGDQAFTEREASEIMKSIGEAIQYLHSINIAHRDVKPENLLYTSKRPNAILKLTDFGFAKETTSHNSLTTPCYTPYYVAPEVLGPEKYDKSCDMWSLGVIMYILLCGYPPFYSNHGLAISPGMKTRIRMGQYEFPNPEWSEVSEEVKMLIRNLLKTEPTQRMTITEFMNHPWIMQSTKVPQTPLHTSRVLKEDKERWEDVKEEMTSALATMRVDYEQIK

In the case of `C[S+]([O-])c1ccc(-c2nc(-c3ccncc3)c(-c3ccc(F)cc3)[nH]2)cc1` (centres unmarked) [SB203580], the “activation of MK-2” value [1] is listed as “inhibit activation of MK-2”.

KKKALLRQLGVAA (not fully specified) [SC-83598 (13-residue inhibitor peptide)]: binds [2].

Reference: patent publication US20040005686A1, “Crystalline structure of human MAPKAP kinase-2” (Pharmacia Corporation, priority 2002, published 2004)
